Assay results reported in patent publication US20240238423A9, “TETRAHYDROISOQUINOLINE HETEROBIFUNCTIONAL BCL-XL DEGRADERS” (Treeline Biosciences, Inc., priority 2022, published 2024).
Like-named read-outs stand apart in the source and are kept apart here.

Target: T1, Human BCL-XL protein (N-terminal HiBiT tagged BCL-XL in HT1080 cells) (Homo sapiens, UniProt Q07817)
T1 construct: expressed in transfected cells; host or cells: HT-1080 (ATCC CCL-121), stably transduced with lentivirus pLV-UBC-N-HiBiT-BCL-XL-PGK-puro and selected with puromycin
T1 sequence (Q07817 whole entry): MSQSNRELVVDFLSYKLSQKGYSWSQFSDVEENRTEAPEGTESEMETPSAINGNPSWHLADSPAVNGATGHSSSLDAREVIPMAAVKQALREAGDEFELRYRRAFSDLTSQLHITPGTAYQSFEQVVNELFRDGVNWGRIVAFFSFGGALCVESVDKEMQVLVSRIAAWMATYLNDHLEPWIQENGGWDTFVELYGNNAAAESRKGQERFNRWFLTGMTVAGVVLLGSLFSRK
Assay: HiBiT based degradation assay
Type: cell-based
Details: HT1080 cells expressing HiBiT-BCL-XL; for Ymin (6 h) / Ymin (24 h): BCL-XL degradation normalized with DMSO control; for DC50: BCL-XL degradation
Procedure, shortened: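 HT1080 cells stably transduced by lentivirus with N-terminally HiBiT-tagged human BCL-XL and kept under 1 μg/mL puromycin selection were seeded at three thousand cells per well in 40 μL RPMI 1640 into 384-well plates pre-spotted with compounds across a concentration range. Luminescence was read on a PHERAstar FSX, normalized to DMSO, and fitted with a four-parameter logistic model.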

Cc1c(OCCCN2CCN(CC(=O)N3CCN(c4cccc5c(C6CCC(=O)NC6=O)nn(C)c45)CC3)CC2)cccc1-c1ccc(N2CCc3cccc(C(=O)Nc4nc5ccccc5s4)c3C2)nc1C(=O)O (stereo not drawn) [Compound 151, 6-(8-(Benzo[d]thiazol-2-ylcarbamoyl)-3,4-dihydroisoquinolin-2(1H)-yl)-3-(3-(3-(4-(2-(4-(3-(2,6-dioxopiperidin-3-yl)-1-methyl-1H-indazol-7-yl)piperazin-1-yl)-2-oxoethyl)piperazin-1-yl)propoxy)-2-methylphenyl)picolinic acid] was tested, and the “Ymin (6 h)” value (6 h) was “B (50% ≤ Ymin < 70%)”, the “Ymin (24 h)” value (24 h) was “A (Ymin < 50%)” and the DC50 (6 h, read-out: EC50 (6 h)) was 100 to 1000 nM. For the same molecule, the DC50 (24 h, read-out: EC50 (24 h)) was under 100 nM.
In the case of Cc1c(O[C@H]2CC[C@H](CCC(=O)N3CCC(c4cccc5c(C6CCC(=O)NC6=O)nn(C)c45)CC3)CC2)cccc1-c1ccc(N2CCc3cccc(C(=O)Nc4nc5ccccc5s4)c3C2)nc1C(=O)O (stereo partly drawn) [Compound 253a, 6-(8-(benzo[d]thiazol-2-ylcarbamoyl)-3,4-dihydroisoquinolin-2(1H)-yl)-3-(3-(((1r,4r)-4-(3-(4-(3-(2,6-dioxopiperidin-3-yl)-1-methyl-1H-indazol-7-yl)piperidin-1-yl)-3-oxopropyl)cyclohexyl)oxy)-2-methylphenyl)picolinic acid], the “Ymin (24 h)” value (24 h) is reported as “B (50% ≤ Ymin < 70%)” and the DC50 (24 h, read-out: EC50 (24 h)) is reported as 100 to 1000 nM.
Cc1c(O[C@H](C)CCC2CCN(CC(=O)Nc3ccc4c(C5CCC(=O)NC5=O)nn(C)c4c3)CC2)cccc1-c1ccc(N2CCc3cccc(C(=O)Nc4nc5ccccc5s4)c3C2)nc1C(=O)O (stereo partly drawn) [Compound 162b, 6-[8-(1,3-benzothiazol-2-ylcarbamoyl)-3,4-dihydro-1H-isoquinolin-2-yl]-3-[3-[(1R)-3-[1-[2-[[3-(2,6-dioxo-3-piperidyl)-1-methyl-indazol-6-yl]amino]-2-oxo-ethyl]-4-piperidyl]-1-methyl-propoxy]-2-methyl-phenyl]pyridine-2-carboxylic acid] was tested, and the “Ymin (6 h)” value (6 h) was “C (Ymin ≥ 70%)”, the “Ymin (24 h)” value (24 h) was “B (50% ≤ Ymin < 70%)” and the DC50 (6 h, read-out: EC50 (6 h)) was 100 to 1000 nM. For the same molecule, the DC50 (24 h, read-out: EC50 (24 h)) was under 100 nM.
In the case of Cc1c(O[C@H]2CC[C@H](CCCN3CCN(c4ccc5c(C6CCC(=O)NC6=O)nn(C)c5c4)[C@H](C)C3)CC2)cccc1-c1ccc(N2CCc3cccc(C(=O)Nc4nc5ccccc5s4)c3C2)nc1C(=O)O (stereo partly drawn) [Compound 278a, 6-(8-(benzo[d]thiazol-2-ylcarbamoyl)-3,4-dihydroisoquinolin-2(1H)-yl)-3-(3-(((1S,4r)-4-(3-((3R)-4-(3-(2,6-dioxopiperidin-3-yl)-1-methyl-1H-indazol-6-yl)-3-methylpiperazin-1-yl)propyl)cyclohexyl)oxy)-2-methylphenyl)picolinic acid], the “Ymin (24 h)” value (24 h) is reported as “A (Ymin < 50%)” and the DC50 (24 h, read-out: EC50 (24 h)) is reported as under 100 nM.
With Cc1c(OCCCC2CCN(C(C)(C)C(=O)Nc3ccc4c(C5CCC(=O)NC5=O)nn(C)c4c3)CC2)cccc1-c1ccc(N2CCc3cccc(C(=O)Nc4nc5ccccc5s4)c3C2)nc1C(=O)O (stereo not drawn) [Compound 166, 6-[8-(1,3-benzothiazol-2-ylcarbamoyl)-3,4-dihydro-1H-isoquinolin-2-yl]-3-[3-[3-[1-[2-[[3-(2,6-dioxo-3-piperidyl)-1-methyl-indazol-6-yl]amino]-1,1-dimethyl-2-oxo-ethyl]-4-piperidyl]propoxy]-2-methyl-phenyl]pyridine-2-carboxylic acid] the “Ymin (24 h)” value (24 h) was “B (50% ≤ Ymin < 70%)” and the DC50 (24 h, read-out: EC50 (24 h)) was 100 to 1000 nM.
For Cc1c(O[C@@H](C)CCC2CCN(CC(=O)Nc3cccc4c(C5CCC(=O)NC5=O)nn(C)c34)CC2)cccc1-c1ccc(N2CCc3cccc(C(=O)Nc4nc5ccccc5s4)c3C2)nc1C(=O)O (stereo partly drawn) [Compound 169a, 6-[8-(1,3-benzothiazol-2-ylcarbamoyl)-3,4-dihydro-1H-isoquinolin-2-yl]-3-[3-[(1S)-3-[1-[2-[[3-(2,6-dioxo-3-piperidyl)-1-methyl-indazol-7-yl]amino]-2-oxo-ethyl]-4-piperidyl]-1-methyl-propoxy]-2-methyl-phenyl]pyridine-2-carboxylic acid], the “Ymin (6 h)” value (6 h) was “B (50% ≤ Ymin < 70%)”, the “Ymin (24 h)” value (24 h) was “B (50% ≤ Ymin < 70%)” and the DC50 (6 h, read-out: EC50 (6 h)) was 100 to 1000 nM. It also gave a DC50 (24 h, read-out: EC50 (24 h)) of under 100 nM.
In the case of Cc1c(OCCOC2CCN(CC(=O)Nc3cccc4c(C5CCC(=O)NC5=O)nn(C)c34)CC2)cccc1-c1ccc(N2CCc3cccc(C(=O)Nc4nc5ccccc5s4)c3C2)nc1C(=O)O (stereo not drawn) [Compound 194, 6-[8-(1,3-benzothiazol-2-ylcarbamoyl)-3,4-dihydro-1H-isoquinolin-2-yl]-3-[3-[2-[[1-[2-[[3-(2,6-dioxo-3-piperidyl)-1-methyl-indazol-7-yl]amino]-2-oxo-ethyl]-4-piperidyl]oxy]ethoxy]-2-methyl-phenyl]pyridine-2-carboxylic acid], the “Ymin (6 h)” value (6 h) is reported as “B (50% ≤ Ymin < 70%)”, the “Ymin (24 h)” value (24 h) is reported as “B (50% ≤ Ymin < 70%)” and the DC50 (6 h, read-out: EC50 (6 h)) is reported as 100 to 1000 nM. It also gave a DC50 (24 h, read-out: EC50 (24 h)) of 100 to 1000 nM.
In the case of Cc1cc(OC[C@@H](C)CC2CCN(CC(=O)Nc3ccc4c(C5CCC(=O)NC5=O)nn(C)c4c3)CC2)ccc1-c1ccc(N2CCc3cccc(C(=O)Nc4nc5ccccc5s4)c3C2)nc1C(=O)O (stereo in doubt) [Compound 271b, 6-(8-(benzo[d]thiazol-2-ylcarbamoyl)-3,4-dihydroisoquinolin-2(1H)-yl)-3-(4-((2S)-3-(1-(2-((3-(2,6-dioxopiperidin-3-yl)-1-methyl-1H-indazol-6-yl)amino)-2-oxoethyl)piperidin-4-yl)-2-methylpropoxy)-2-methylphenyl)picolinic acid], the “Ymin (24 h)” value (24 h) is reported as “C (Ymin ≥ 70%)” and the DC50 (24 h, read-out: EC50 (24 h)) is reported as under 100 nM.
With Cc1c(O[C@H]2CC[C@H](CC(F)(F)C(=O)N3CCN(c4ccc5c(C6CCC(=O)NC6=O)nn(C)c5c4)CC3)CC2)cccc1-c1ccc(N2CCc3cccc(C(=O)Nc4nc5ccccc5s4)c3C2)nc1C(=O)O (stereo partly drawn) [Compound 239a, 6-(8-(benzo[d]thiazol-2-ylcarbamoyl)-3,4-dihydroisoquinolin-2(1H)-yl)-3-(3-(((1r,4r)-4-(3-(4-(3-(2,6-dioxopiperidin-3-yl)-1-methyl-1H-indazol-6-yl)piperazin-1-yl)-2,2-difluoro-3-oxopropyl)cyclohexyl)oxy)-2-methylphenyl)picolinic acid] the “Ymin (24 h)” value (24 h) was “B (50% ≤ Ymin < 70%)” and the DC50 (24 h, read-out: EC50 (24 h)) was under 100 nM.
Cc1c(OCCC2CCN(CCN3CCN(c4cccc5c(C6CCC(=O)NC6=O)nn(C)c45)CC3)CC2)cccc1-c1ccc(N2CCc3cccc(C(=O)Nc4nc5ccccc5s4)c3C2)nc1C(=O)O (stereo not drawn) [Compound 233, 6-[8-(1,3-benzothiazol-2-ylcarbamoyl)-3,4-dihydro-1H-isoquinolin-2-yl]-3-[3-[2-[1-[2-[4-[3-(2,6-dioxo-3-piperidyl)-1-methyl-indazol-7-yl]piperazin-1-yl]ethyl]-4-piperidyl]ethoxy]-2-methyl-phenyl]pyridine-2-carboxylic acid] was tested, and the “Ymin (24 h)” value (24 h) was “A (Ymin < 50%)” and the DC50 (24 h, read-out: EC50 (24 h)) was under 100 nM.
Cc1c(OCCCCCCCN2CCN(c3ccc4c(C5CCC(=O)NC5=O)nn(C)c4c3)CC2)cccc1-c1ccc(N2CCc3cccc(C(=O)Nc4nc5ccccc5s4)c3C2)nc1C(=O)O (stereo not drawn) [Compound 137, 6-(8-(benzo[d]thiazol-2-ylcarbamoyl)-3,4-dihydroisoquinolin-2(1H)-yl)-3-(3-((7-(4-(3-(2,6-dioxopiperidin-3-yl)-1-methyl-1H-indazol-6-yl)piperazin-1-yl)heptyl)oxy)-2-methylphenyl)picolinic acid] was tested, and the “Ymin (6 h)” value (6 h) was “B (50% ≤ Ymin < 70%)”, the “Ymin (24 h)” value (24 h) was “A (Ymin < 50%)” and the DC50 (6 h, read-out: EC50 (6 h)) was under 100 nM. For the same molecule, the DC50 (24 h, read-out: EC50 (24 h)) was under 100 nM.
For Cc1c(Oc2ccccc2CCCC(=O)Nc2cccc3c(C4CCC(=O)NC4=O)nn(C)c23)cccc1-c1ccc(N2CCc3cccc(C(=O)Nc4nc5ccccc5s4)c3C2)nc1C(=O)O (stereo not drawn) [Compound 128, 6-(8-(benzo[d]thiazol-2-ylcarbamoyl)-3,4-dihydroisoquinolin-2(1H)-yl)-3-(3-(2-(4-((3-(2,6-dioxopiperidin-3-yl)-1-methyl-1H-indazol-7-yl)amino)-4-oxobutyl)phenoxy)-2-methylphenyl)picolinic acid], the “Ymin (6 h)” value (6 h) was “C (Ymin ≥ 70%)”, the “Ymin (24 h)” value (24 h) was “C (Ymin ≥ 70%)” and the DC50 (6 h, read-out: EC50 (6 h)) was 1000 to 10000 nM. For the same molecule, the DC50 (24 h, read-out: EC50 (24 h)) was under 100 nM.
In the case of Cc1cc(OCCCN2C[C@@H](C)N(CC(=O)N3CCN(c4cccc5c(C6CCC(=O)NC6=O)nn(C)c45)CC3)[C@@H](C)C2)ccc1-c1ccc(N2CCc3cccc(C(=O)Nc4nc5ccccc5s4)c3C2)nc1C(=O)O (stereo partly drawn) [Compound 183a, 6-[8-(1,3-benzothiazol-2-ylcarbamoyl)-3,4-dihydro-1H-isoquinolin-2-yl]-3-[4-[3-[(3S,5R)-4-[2-[4-[3-(2,6-dioxo-3-piperidyl)-1-methyl-indazol-7-yl]piperazin-1-yl]-2-oxo-ethyl]-3,5-dimethyl-piperazin-1-yl]propoxy]-2-methyl-phenyl]pyridine-2-carboxylic acid], the “Ymin (6 h)” value (6 h) is reported as “B (50% ≤ Ymin < 70%)”, the “Ymin (24 h)” value (24 h) is reported as “A (Ymin < 50%)” and the DC50 (6 h, read-out: EC50 (6 h)) is reported as under 100 nM. For the same molecule, the DC50 (24 h, read-out: EC50 (24 h)) was under 100 nM.
In the case of Cc1c(Oc2ccc(CCN3CCN(c4cccc5c(C6CCC(=O)NC6=O)nn(C)c45)CC3)cc2)cccc1-c1ccc(N2CCc3cccc(C(=O)Nc4nc5ccccc5s4)c3C2)nc1C(=O)O (stereo not drawn) [Compound 241, 6-[8-(1,3-benzothiazol-2-ylcarbamoyl)-3,4-dihydro-1H-isoquinolin-2-yl]-3-[3-[4-[2-[4-[3-(2,6-dioxo-3-piperidyl)-1-methyl-indazol-7-yl]piperazin-1-yl]ethyl]phenoxy]-2-methyl-phenyl]pyridine-2-carboxylic acid], the “Ymin (24 h)” value (24 h) is reported as “B (50% ≤ Ymin < 70%)” and the DC50 (24 h, read-out: EC50 (24 h)) is reported as under 100 nM.
